Experimental data published in the supplement of paper PMC10307832.

What was measured:
Assay in all cases: relative viability (nuclei count vs DMSO), 5 days (fraction); higher = more cells survive
NCI-H1355 = system: NCI-H1355
Summary of the method: (§1)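 Lung cancer cell lines were pin-tool dosed in 1536-well plates on the day after seeding, with either a lone drug or a fixed anchor-drug dose plus five library-drug doses (not always all listed) in √10 steps. Nuclei were counted on 4× images after 5 days. Relative viability is the ratio of treated-well to vehicle-well nuclei counts, with each value a median of duplicate plates.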

HCC-827 = system: HCC-827
Summary of the method: as §1

HCC-366 = system: HCC-366
Summary of the method: as §1

NCI-H2085 = system: NCI-H2085
Summary of the method: as §1

NCI-H2009 = system: NCI-H2009
Summary of the method: as §1

NCI-H460 = system: NCI-H460
Summary of the method: as §1

ChaGo-K-1 = system: ChaGo-K-1
Summary of the method: as §1

NCI-H1993 = system: NCI-H1993
Summary of the method: as §1

H3255 = system: H3255
Summary of the method: as §1

NCI-H2342 = system: NCI-H2342
Summary of the method: as §1

EKVX = system: EKVX
Summary of the method: as §1

CAL-12T = system: CAL-12T
Summary of the method: as §1

NCI-H2228 = system: NCI-H2228
Summary of the method: as §1

SK-MES-1 = system: SK-MES-1
Summary of the method: as §1

NCI-H1975 = system: NCI-H1975
Summary of the method: as §1

NCI-H441 = system: NCI-H441
Summary of the method: as §1

NCI-H322M = system: NCI-H322M
Summary of the method: as §1

EPLC-272H = system: EPLC-272H
Summary of the method: as §1

ABC-1 = system: ABC-1
Summary of the method: as §1

COR-L 105 = system: COR-L 105
Summary of the method: as §1

NCI-H2087 = system: NCI-H2087
Summary of the method: as §1

SMILES: Cc1cn(-c2cc(NC(=O)c3ccc(C)c(Nc4nccc(-c5cccnc5)n4)c3)cc(C(F)(F)F)c2)cn1 [Nilotinib] + COc1cc2c(Oc3ccc(NC(=O)C4(C(=O)Nc5ccc(F)cc5)CC4)cc3F)ccnc2cc1OCCCN1CCOCC1 [Foretinib] (partner 0.25 µM)
- relative viability (NCI-H1355; first compound 0.001 µM): 0.907
- relative viability (NCI-H1355; first compound 0.003162 µM): 1.19
- relative viability (NCI-H1355; first compound 0.01 µM): 1.25
- relative viability (NCI-H1355; first compound 0.03162 µM): 0.893
- relative viability (NCI-H1355; first compound 0.1 µM): 0.992
- relative viability (HCC-827; first compound 0.003162 µM): 1.13
- relative viability (HCC-827; first compound 0.01 µM): 1.06
- relative viability (HCC-827; first compound 0.03162 µM): 0.939
- relative viability (HCC-827; first compound 0.1 µM): 0.938
- relative viability (HCC-366; first compound 0.001 µM): 0.959
- relative viability (HCC-366; first compound 0.003162 µM): 1.08
- relative viability (HCC-366; first compound 0.01 µM): 1.17
- relative viability (HCC-366; first compound 0.03162 µM): 0.916
- relative viability (HCC-366; first compound 0.1 µM): 0.953
- relative viability (NCI-H2085; first compound 0.001 µM): 0.919
- relative viability (NCI-H2085; first compound 0.003162 µM): 1.09
- relative viability (NCI-H2085; first compound 0.01 µM): 1.17
- relative viability (NCI-H2085; first compound 0.03162 µM): 0.84
- relative viability (NCI-H2085; first compound 0.1 µM): 0.801
- relative viability (NCI-H2009; first compound 0.001 µM): 1.12
- relative viability (NCI-H2009; first compound 0.003162 µM): 1.41
- relative viability (NCI-H2009; first compound 0.01 µM): 1.32
- relative viability (NCI-H2009; first compound 0.03162 µM): 1.16
- relative viability (NCI-H2009; first compound 0.1 µM): 1.1
- relative viability (NCI-H460; first compound 0.001 µM): 0.903
- relative viability (NCI-H460; first compound 0.003162 µM): 1.31
- relative viability (NCI-H460; first compound 0.01 µM): 1.17
- relative viability (NCI-H460; first compound 0.03162 µM): 0.66
- relative viability (NCI-H460; first compound 0.1 µM): 0.941
- relative viability (ChaGo-K-1; first compound 0.001 µM): 0.799
- relative viability (ChaGo-K-1; first compound 0.003162 µM): 1.09
- relative viability (ChaGo-K-1; first compound 0.01 µM): 1.03
- relative viability (ChaGo-K-1; first compound 0.03162 µM): 0.582
- relative viability (ChaGo-K-1; first compound 0.1 µM): 0.756
- relative viability (NCI-H1993; first compound 0.001 µM): 0.823
- relative viability (NCI-H1993; first compound 0.003162 µM): 0.871
- relative viability (NCI-H1993; first compound 0.01 µM): 0.989
- relative viability (NCI-H1993; first compound 0.03162 µM): 0.742
- relative viability (NCI-H1993; first compound 0.1 µM): 0.839
- relative viability (H3255; first compound 0.001 µM): 0.943
- relative viability (H3255; first compound 0.003162 µM): 1.06
- relative viability (H3255; first compound 0.03162 µM): 0.845
- relative viability (H3255; first compound 0.1 µM): 0.296
- relative viability (NCI-H2342; first compound 0.001 µM): 0.968
- relative viability (NCI-H2342; first compound 0.003162 µM): 1.1
- relative viability (NCI-H2342; first compound 0.03162 µM): 0.979
- relative viability (NCI-H2342; first compound 0.1 µM): 1
- relative viability (EKVX; first compound 0.001 µM): 0.726
- relative viability (EKVX; first compound 0.003162 µM): 1
- relative viability (EKVX; first compound 0.01 µM): 1.43
- relative viability (EKVX; first compound 0.03162 µM): 0.512
- relative viability (EKVX; first compound 0.1 µM): 0.187
- relative viability (CAL-12T; first compound 0.001 µM): 1.1
- relative viability (CAL-12T; first compound 0.003162 µM): 1.09
- relative viability (CAL-12T; first compound 0.01 µM): 1.17
- relative viability (CAL-12T; first compound 0.1 µM): 0.87
- relative viability (NCI-H2228; first compound 0.003162 µM): 0.99
- relative viability (NCI-H2228; first compound 0.01 µM): 1.06
- relative viability (NCI-H2228; first compound 0.03162 µM): 0.549
- relative viability (NCI-H2228; first compound 0.1 µM): 0.8
- relative viability (SK-MES-1; first compound 0.003162 µM): 1.13
- relative viability (SK-MES-1; first compound 0.01 µM): 1.23
- relative viability (SK-MES-1; first compound 0.03162 µM): 0.904
- relative viability (SK-MES-1; first compound 0.1 µM): 0.963
- relative viability (NCI-H1975; first compound 0.001 µM): 0.956
- relative viability (NCI-H1975; first compound 0.003162 µM): 1.12
- relative viability (NCI-H1975; first compound 0.01 µM): 1.02
- relative viability (NCI-H1975; first compound 0.03162 µM): 0.74
- relative viability (NCI-H1975; first compound 0.1 µM): 0.957
- relative viability (NCI-H441; first compound 0.001 µM): 0.878
- relative viability (NCI-H441; first compound 0.003162 µM): 1.26
- relative viability (NCI-H441; first compound 0.01 µM): 1.32
- relative viability (NCI-H441; first compound 0.03162 µM): 0.932
- relative viability (NCI-H441; first compound 0.1 µM): 0.805
- relative viability (NCI-H322M; first compound 0.001 µM): 1.01
- relative viability (NCI-H322M; first compound 0.003162 µM): 0.987
- relative viability (NCI-H322M; first compound 0.01 µM): 1.05
- relative viability (NCI-H322M; first compound 0.03162 µM): 0.956
- relative viability (NCI-H322M; first compound 0.1 µM): 1.07
- relative viability (EPLC-272H; first compound 0.001 µM): 0.48
- relative viability (EPLC-272H; first compound 0.003162 µM): 0.658
- relative viability (EPLC-272H; first compound 0.01 µM): 0.688
- relative viability (EPLC-272H; first compound 0.03162 µM): 0.435
- relative viability (EPLC-272H; first compound 0.1 µM): 0.195
- relative viability (ABC-1; first compound 0.001 µM): 0.963
- relative viability (ABC-1; first compound 0.003162 µM): 1.32
- relative viability (ABC-1; first compound 0.01 µM): 1.17
- relative viability (ABC-1; first compound 0.03162 µM): 0.918
- relative viability (ABC-1; first compound 0.1 µM): 1.32
- relative viability (COR-L 105; first compound 0.001 µM): 1.08
- relative viability (COR-L 105; first compound 0.01 µM): 1.45
- relative viability (COR-L 105; first compound 0.03162 µM): 0.99
- relative viability (COR-L 105; first compound 0.1 µM): 0.99
- relative viability (NCI-H2087; first compound 0.001 µM): 1.03
- relative viability (NCI-H2087; first compound 0.003162 µM): 1.16
- relative viability (NCI-H2087; first compound 0.01 µM): 1.27
- relative viability (NCI-H2087; first compound 0.03162 µM): 0.83
- relative viability (NCI-H2087; first compound 0.1 µM): 0.761
